Data: ChEMBL document CHEMBL1201862, “PubChem BioAssay data set” (2004)
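Following 48 hours of exposure in 96-well plates, responses at five concentrations were used to interpolate endpoints linearly. At the GI50, growth is halved.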 Activity calls are given as the source filed them. Cut-off read from the data, not from the text of the source: active = GI50 up to about 1.1 µM and inactive = higher.

Assays:
Assay in all cases: growth of human tumour cells (NCI), 48 h
NCI-H460 = test system: NCI-H460
ACHN = test system: ACHN
SK-MEL-5 = test system: SK-MEL-5
Hs-578T = test system: Hs-578T
DU-145 = test system: DU-145
COLO 205 = test system: COLO 205
Malme-3M = test system: Malme-3M
K562 = test system: K562
PC-3 = test system: PC-3
NCI/ADR-RES = test system: NCI/ADR-RES
OVCAR-5 = test system: OVCAR-5
SF-268 = test system: SF-268
CAKI-1 = test system: CAKI-1
IGROV-1 = test system: IGROV-1
HCT-116 = test system: HCT-116
NCI-H23 = test system: NCI-H23
MDA-MB-231 = test system: MDA-MB-231
A498 = test system: A498
T47D = test system: T47D

Measured: GI50

O=c1c(-c2ccccc2)c(SCCO)n(-c2ccccc2)c(=S)n1-c1ccccc1
inactive: NCI-H460 > 100 µM | ACHN > 100 µM | SK-MEL-5 > 100 µM | Hs-578T 99.5 µM | DU-145 > 100 µM | COLO 205 > 100 µM | Malme-3M > 100 µM | K562 > 100 µM | PC-3 > 100 µM | NCI/ADR-RES > 100 µM | OVCAR-5 > 100 µM | SF-268 > 100 µM | CAKI-1 > 100 µM | IGROV-1 > 100 µM | HCT-116 > 100 µM | NCI-H23 > 100 µM

Oc1ccc(Cl)cc1/N=N\c1c(O)ccc2ccccc12
inactive: ACHN > 100 µM | SK-MEL-5 92.7 µM | MDA-MB-231 > 100 µM | Hs-578T > 100 µM | COLO 205 > 100 µM | Malme-3M 22.2 µM | K562 > 100 µM | PC-3 > 100 µM | NCI/ADR-RES > 100 µM | OVCAR-5 > 100 µM | SF-268 > 100 µM | CAKI-1 > 100 µM | IGROV-1 > 100 µM | HCT-116 > 100 µM | NCI-H23 > 100 µM

O=C1C2=Nc3ccccc3C(O)(C(=O)O)N2c2ccccc21 (configuration not stated)
inactive: NCI-H460 12.2 µM | ACHN 26.5 µM | SK-MEL-5 14 µM | MDA-MB-231 17.2 µM | Hs-578T 27.7 µM | DU-145 16.3 µM | COLO 205 16.4 µM | Malme-3M 15 µM | K562 20.8 µM | PC-3 6.61 µM | A498 29.5 µM | NCI/ADR-RES 29.6 µM | OVCAR-5 34.8 µM | SF-268 18.2 µM | CAKI-1 14.3 µM | IGROV-1 37.7 µM | HCT-116 20 µM | NCI-H23 24.1 µM

CCOC(=O)c1c(N=P(c2ccccc2)(c2ccccc2)c2ccccc2)nnc(-c2ccccc2)c1-c1ccccc1
inactive: NCI-H460 > 100 µM | ACHN > 100 µM | T47D > 100 µM | SK-MEL-5 > 100 µM | MDA-MB-231 > 100 µM | DU-145 > 100 µM | COLO 205 > 100 µM | Malme-3M > 100 µM | K562 > 100 µM | PC-3 > 100 µM | A498 25.9 µM | NCI/ADR-RES > 100 µM | OVCAR-5 > 100 µM | SF-268 > 100 µM | IGROV-1 > 100 µM | HCT-116 > 100 µM | NCI-H23 > 100 µM

Cc1ccccc1NC(=O)Cc1nc2ccccc2s1
inactive: NCI-H460 19.4 µM | ACHN 15.4 µM | SK-MEL-5 51.2 µM | COLO 205 30.7 µM | Malme-3M 15.8 µM | K562 18.3 µM | A498 19.2 µM | OVCAR-5 21.9 µM | SF-268 17 µM | CAKI-1 17.7 µM | IGROV-1 > 10 µM | HCT-116 16.5 µM | NCI-H23 14.7 µM

O=C1CCc2cc(Br)ccc2O1
inactive: NCI-H460 > 100 µM | ACHN 49.1 µM | T47D 73.3 µM | SK-MEL-5 26.4 µM | Hs-578T 22.4 µM | DU-145 > 100 µM | COLO 205 > 100 µM | Malme-3M > 100 µM | K562 > 100 µM | PC-3 > 100 µM | A498 37.8 µM | OVCAR-5 > 100 µM | SF-268 23.6 µM | CAKI-1 38.4 µM | IGROV-1 67.3 µM | HCT-116 42 µM | NCI-H23 44.7 µM

N=C(N)n1nc2c(c1O)CCC2
inactive: NCI-H460 > 100 µM | ACHN > 100 µM | SK-MEL-5 > 100 µM | MDA-MB-231 > 100 µM | Hs-578T > 100 µM | DU-145 > 100 µM | COLO 205 > 100 µM | Malme-3M > 100 µM | K562 > 100 µM | PC-3 > 100 µM | NCI/ADR-RES > 100 µM | OVCAR-5 > 100 µM | SF-268 > 100 µM | CAKI-1 > 100 µM | IGROV-1 > 100 µM | HCT-116 > 100 µM | NCI-H23 > 100 µM

O=C1NCC(NC(=O)C(F)(F)F)c2c(Br)sc(Br)c21 (configuration not stated)
inactive: NCI-H460 > 100 µM | ACHN > 100 µM | T47D > 100 µM | SK-MEL-5 > 100 µM | MDA-MB-231 > 100 µM | DU-145 > 100 µM | COLO 205 > 100 µM | Malme-3M > 100 µM | K562 > 100 µM | PC-3 > 100 µM | A498 > 100 µM | NCI/ADR-RES > 100 µM | OVCAR-5 > 100 µM | SF-268 > 100 µM | CAKI-1 > 100 µM | IGROV-1 > 100 µM | HCT-116 > 100 µM | NCI-H23 > 100 µM

CC[C@H](NC1=C(Cl)C(=O)c2c(O)ccc(O)c2C1=O)C(=O)OC
inactive: NCI-H460 > 10 µM | ACHN > 10 µM | SK-MEL-5 6.53 µM | MDA-MB-231 3.33 µM | Hs-578T > 10 µM | DU-145 > 10 µM | COLO 205 3.58 µM | Malme-3M 4.28 µM | K562 3.94 µM | PC-3 6.9 µM | NCI/ADR-RES 7.28 µM | OVCAR-5 > 10 µM | SF-268 4.13 µM | CAKI-1 > 10 µM | IGROV-1 > 10 µM | HCT-116 2.34 µM | NCI-H23 > 10 µM

CN(C)CCNC(=O)c1ccccc1Nc1c(Cl)cccc1Cl
inactive: ACHN 8.75 µM | SK-MEL-5 2.89 µM | COLO 205 11.6 µM | K562 13.4 µM | OVCAR-5 10.4 µM | SF-268 16.2 µM | IGROV-1 18.2 µM | HCT-116 7.93 µM | NCI-H23 17.1 µM

Nc1c(C(=O)c2ccc(Cl)cc2)[nH]c(NCc2ccccc2)c1C(=S)Nc1ccccc1
inactive: NCI-H460 1.77 µM | ACHN 2.28 µM | T47D 3.76 µM | MDA-MB-231 1.9 µM | DU-145 3.44 µM | COLO 205 11.5 µM | K562 2.08 µM | PC-3 5.31 µM | A498 9.98 µM | NCI/ADR-RES 7.83 µM | OVCAR-5 3 µM | SF-268 3.03 µM | CAKI-1 5.2 µM | IGROV-1 2.37 µM | HCT-116 1.83 µM | NCI-H23 2.39 µM

CSCCCN(CCCSC)CCCSC
inactive: NCI-H460 > 100 µM | T47D > 100 µM | SK-MEL-5 > 100 µM | MDA-MB-231 > 100 µM | DU-145 > 100 µM | COLO 205 > 100 µM | K562 97.5 µM | PC-3 > 100 µM | NCI/ADR-RES > 100 µM | OVCAR-5 > 100 µM | SF-268 > 100 µM | IGROV-1 > 100 µM | HCT-116 > 100 µM | NCI-H23 > 100 µM

CC(C)(C)OC(=O)NNC(=O)C1Cc2ccccc2OC1=O (configuration not stated)
inactive: NCI-H460 > 100 µM | ACHN > 100 µM | SK-MEL-5 > 100 µM | Hs-578T > 100 µM | DU-145 > 100 µM | Malme-3M > 100 µM | K562 > 100 µM | PC-3 > 100 µM | NCI/ADR-RES > 100 µM | OVCAR-5 > 100 µM | SF-268 > 100 µM | CAKI-1 > 100 µM | IGROV-1 > 100 µM | HCT-116 > 100 µM | NCI-H23 > 100 µM
